Laboratory results reported in patent US20240132449A1, “HETEROCYCLIC COMPOUNDS AND METHODS OF USE THEREOF” (1cBio, Inc., priority 2022, published 2024).

Experiments:
PARP1 [1] = target: T1, PARP1 (Homo sapiens, UniProt P09874); experiment: PARP1 fluorescence polarization binding assay; conditions: binding IC50, GST-tagged PARP1 20 nM, PARPi-FL 3 nM
In short: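 Competitive FP binding: 20 nM GST-tagged PARP1 preincubated with compound 30 min at RT, then 3 nM PARPi-FL probe for 4 h at RT; buffer 50 mM Tris pH 8.0, 10 mM MgCl2, 150 mM NaCl. 10-point 3-fold dilutions; % inhibition from mP versus controls, IC50 by four-parameter fit, reported in ranges.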

[2] = test system: DLD-1 BRCA2(−/−) colorectal adenocarcinoma cells; experiment: Cell viability assay (Cell Titer-Glo), DLD-1 BRCA2(−/−); format: cell-based; conditions: Homo sapiens, DLD-1, 168 h; 7 days incubation, 200 cells/well
Procedure: (§1) Compounds of the present disclosure were tested for their effects on the viability of cancer cells. DLD-1 wild-type and DLD-1 BRCA2(−/−) colorectal adenocarcinoma cells, an isogenic pair of cell lines differing in the presence and absence, respectively, of both BRCA2 alleles, were used. The cells were harvested during the logarithmic growth period, counted, and seeded at 50 cells/well for DLD-1 wild-type and 200 cells/well for DLD-1 BRCA2(−/−) in a 384-well cell culture plate. After seeding, cells were incubated at 37° C., 5% CO2 overnight. Cells were treated with serially diluted test compounds at 10 concentrations (e.g., from 1.5 nM-30 μM) for generation of dose response curves, or at a single concentration. The plate was further incubated for another 7 days in a humidified incubator at 37° C. and 5% CO2. Cell viability was assessed by luminescence measurement after addition of Cell Titer-Glo reagent (Promega, Madison, Wis.) according to the manufacturer's instructions. Cell viability IC50 values were calculated using XLFit, equation 201: y=A+((B−A)/(1+((x/C)^D))), where A=bottom, B=top, C=IC50, and D=slope. IC50 values are shown in Table B and are presented in ranges, in which “+++”<300 nM, 300 nM≤“++”<3000 nM, and “+”≥3000 nM. Values for percent inhibition at 10 μM are also shown in Table B and are presented in ranges, in which “***”≥67%, 33%≤“**”<67%, and “*”<33%. Effects of the test compounds on the viability of other cell lines such as MDA-MB-436, MDA-MB-231, SUM149PT, HCC1395, and UWB1.289 are determined in an analogous method.

PARP1 [3] = target: T1, PARP1; experiment: PARP1 biochemical trapping assay (BPS PARPtrap)
Procedure: Compounds of the present disclosure were tested in a PARP1 biochemical trapping assay at BPS Bioscience (San Diego, CA). PARP1 is known to bind damaged DNA through its DNA-binding domains. Binding to DNA activates PARP1, and in the presence of NAD+, PARP1 ribosylates itself (auto-ribosylation), leading to PARP1 dissociation from the DNA due to the accumulated negative charge of the ribosyl polymer. In the presence of some inhibitors, however, PARP remains bound to the DNA, a phenomenon termed trapping.
The BPS PARPtrap assay kit for PARP1 (BPS Catalog #80584) was used. A series of dilutions of the compounds were prepared with 10% DMSO in water. The final concentration of DMSO was 1% in all reactions. The enzymatic reactions were conducted in duplicates at room temperature in a 96-well plate. The 45 μl reaction mixtures in PARPtrap buffer 1 containing PARP1 fluorescent labelled oligonucleotide duplex, PARP enzyme and the test compound were incubated at room temperature for 10 min. After pre-incubation, the enzymatic reaction was initiated by adding 5 μl of 10×NAD+ solution. The reaction was incubated for 45-60 min at room temperature.
Fluorescence polarization was measured at an excitation of 470 nm and an emission of 518 nm using a Tecan Infinite M1000 microplate reader. The blank value was subtracted from all other values. Fluorescence polarization was analyzed by Tecan Magellan 6 software and wells containing DNA were used as references. The fluorescence polarization data were then evaluated using GraphPad Prism software. The fluorescence polarization in absence of the compound in each data set was defined as 0% activity (FPo), while the fluorescence polarization in the absence of both NAD+ and the compound was defined as 100% activity (FPt). The percent activity in the presence of the compound was calculated according to the equation % activity=[FP−FPo]/[(FPt−FPo)]×100, where FP=the fluorescence polarization in the presence of the compound.
The values of % activity versus a series of compound concentrations were then plotted using non-linear regression analysis of a sigmoidal dose-response curve generated with the equation Y=B+(T−B)/1+10^((LogEC50−X)×Hill Slope), where Y=percent activity, B=minimum percent activity, T=maximum percent activity, X=logarithm of compound and Hill Slope=slope factor or Hill coefficient. The EC50 value was determined by the concentration causing a half-maximal percent activity. EC50 values are shown in Table C and are presented in ranges, in which “+++”<300 nM, 300 nM≤“++”<3000 nM, and “+”≥3000 nM.

[4] = test system: DLD-1 wild-type colorectal adenocarcinoma cells; experiment: Cell viability assay (Cell Titer-Glo), DLD-1 wild-type; format: cell-based; conditions: Homo sapiens, DLD-1, 168 h, 7 days incubation; for inhibition at 10 µM: read-out: DLD-1 wild-type % inh at 10 μM
Procedure: as §1

recombinant human PARP2 = recombinant human PARP2 (Homo sapiens, UniProt Q9UGN5); experiment: PARP2 fluorescence polarization binding assay; conditions: for inhibition at 10 µM: read-out: PARP2 % inh at 10 μM
Chain of recombinant human PARP2 (Q9UGN5 whole entry): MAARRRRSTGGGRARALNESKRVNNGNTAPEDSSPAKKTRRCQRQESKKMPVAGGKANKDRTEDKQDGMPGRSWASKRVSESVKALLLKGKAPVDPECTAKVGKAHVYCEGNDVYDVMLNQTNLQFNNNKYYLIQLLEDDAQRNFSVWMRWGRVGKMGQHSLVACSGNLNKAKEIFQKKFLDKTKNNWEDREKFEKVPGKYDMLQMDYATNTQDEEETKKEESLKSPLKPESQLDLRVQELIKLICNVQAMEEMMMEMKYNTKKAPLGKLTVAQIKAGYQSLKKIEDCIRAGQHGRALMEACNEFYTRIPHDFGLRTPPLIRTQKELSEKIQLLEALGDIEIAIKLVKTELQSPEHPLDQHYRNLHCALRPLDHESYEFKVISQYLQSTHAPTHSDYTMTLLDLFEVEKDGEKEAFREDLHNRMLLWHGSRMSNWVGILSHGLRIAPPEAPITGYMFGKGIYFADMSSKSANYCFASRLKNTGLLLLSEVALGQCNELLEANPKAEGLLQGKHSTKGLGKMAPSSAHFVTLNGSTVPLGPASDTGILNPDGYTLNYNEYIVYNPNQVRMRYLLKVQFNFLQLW
Procedure: Compounds of the present disclosure were tested in a PARP2 fluorescence polarization binding assay at Pharmaron (Beijing, P.R. China). In this biochemical assay, binding of test compound to recombinant human PARP2 reduces the amount of binding of a fluorescent probe, and consequently reduces the detected level of fluorescence polarization. Test compound stock solutions were prepared in DMSO and then serially diluted into 10 concentrations by 3-fold dilution in a 384-well plate using a TECAN EVO200. Alternatively, a single concentration was prepared. 60 nL of each dilution was transferred to the plate using an Echo550 (Labcyte), and then 10 μL 40 nM GST-tagged PARP2 (BPS Bioscience, Cat #80502), diluted in assay buffer (50 mM Tris pH 8.0, 0.001% Triton X-100, 10 mM MgCl2, 150 mM NaCl), was added to the plate. After a centrifugation at 1000 rpm for 1 min, the assay plate was incubated for 30 min at RT. 10 μL 6 nM PARPi-FL (TOCRIS, Cat #6461), diluted using assay buffer, was then added to the plate. […] After a centrifugation at 1000 rpm for 1 min, the assay plate was incubated for 4 h at RT. Samples in each well were read using an Envision instrument (Perkin-Elmer; Ex=480 nm Em=FITC FP-P pol 535 nm & FITC FP-S pol 535 nm). […] Binding IC50 values were calculated using XLFit (equation 201: […])^D))), where A=bottom, B=top, C=IC50, and D=slope) with a floating top and bottom for curves.

T1 sequence (P09874 whole entry): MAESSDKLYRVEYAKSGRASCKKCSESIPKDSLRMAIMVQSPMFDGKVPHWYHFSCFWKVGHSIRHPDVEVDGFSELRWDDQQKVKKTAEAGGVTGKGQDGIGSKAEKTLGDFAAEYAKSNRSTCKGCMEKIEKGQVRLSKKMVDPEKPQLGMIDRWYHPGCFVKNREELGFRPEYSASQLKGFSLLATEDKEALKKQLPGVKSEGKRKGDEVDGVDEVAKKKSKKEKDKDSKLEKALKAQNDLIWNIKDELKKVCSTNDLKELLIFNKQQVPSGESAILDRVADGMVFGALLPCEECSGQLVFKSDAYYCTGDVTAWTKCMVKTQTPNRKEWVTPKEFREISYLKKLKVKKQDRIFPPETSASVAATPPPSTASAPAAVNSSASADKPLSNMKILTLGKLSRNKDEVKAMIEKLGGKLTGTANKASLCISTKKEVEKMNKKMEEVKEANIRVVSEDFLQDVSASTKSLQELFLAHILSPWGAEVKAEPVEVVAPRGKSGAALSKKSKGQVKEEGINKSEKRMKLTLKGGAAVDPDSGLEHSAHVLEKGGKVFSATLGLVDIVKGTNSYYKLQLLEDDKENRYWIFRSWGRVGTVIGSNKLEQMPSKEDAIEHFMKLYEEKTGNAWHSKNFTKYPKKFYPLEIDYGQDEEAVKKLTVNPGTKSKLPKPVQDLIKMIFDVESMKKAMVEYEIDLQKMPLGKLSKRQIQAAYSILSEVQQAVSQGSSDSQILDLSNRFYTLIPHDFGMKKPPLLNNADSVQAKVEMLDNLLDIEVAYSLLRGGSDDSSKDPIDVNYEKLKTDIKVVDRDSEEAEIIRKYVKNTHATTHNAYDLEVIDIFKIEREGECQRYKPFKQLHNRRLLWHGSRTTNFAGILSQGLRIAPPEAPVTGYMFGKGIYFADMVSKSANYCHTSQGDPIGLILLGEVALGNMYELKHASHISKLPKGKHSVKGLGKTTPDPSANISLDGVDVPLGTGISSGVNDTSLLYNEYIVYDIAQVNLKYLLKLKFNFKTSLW

SMILES	IC50 (PARP1 [1]) [µM]	IC50 [2] [µM]	EC50 (PARP1 [3]) [µM]	inhibition at 10 µM [4] [%]	inhibition at 10 µM (recombinant human PARP2) [%]	IC50 ([4]; 50 cells/well) [µM]	IC50 (recombinant human PARP2; binding IC50, GST-tagged PARP2 20 nM, PARPi-FL 3 nM) [µM]
CCn1c(=O)[nH]c2cc(CN3CCN(c4ccc(C(=O)NC5COC5)nc4C)CC3)sc2c1=O [Compound 323]	< 0.1	> 3	> 3	< 33	33 to 67	–	–
CCn1c(=O)[nH]c2cc(CN3CCN(c4ccc(C(=O)NC(CO)CO)nc4C)CC3)sc2c1=O [Compound 527]	< 0.1	> 3	> 3	< 33	33 to 67	–	–
CCn1c(=O)[nH]c2cc(CN3CCN(c4ccc(C(=O)NC)nc4F)CC3)sc2c1=O [Compound 319]	< 0.1	< 0.3	< 0.3	< 33	33 to 67	–	–
CCn1c(=O)[nH]c2cc(CN3CCN(c4ccc(C(=O)NC)nc4C(F)(F)F)CC3)sc2c1=O [Compound 307]	< 0.1	0.3 to 3	0.3 to 3	< 33	33 to 67	> 3	> 3
